Data: publication PMC6017957, “Synthesis, Anti-Proliferative Activity Evaluation and 3D-QSAR Study of Naphthoquinone Derivatives as Potential Anti-Colorectal Cancer Agents” (Molecules : A Journal of Synthetic Chemistry and Natural …, 2018)
Like-named read-outs stand apart in the source and are kept apart here.

Key:
[1] = system: HT-29 colorectal cancer cells; assay: MTT anti-proliferative assay against HT-29 cells; format: cell-based, human; conditions: for Selectivity Index: SI = IC50Fibroblast/IC50HT-29cells; for Cytotoxic activity category against HT-29: classified by HT-29 IC50
Procedure: (§1) The toxicity of the thirty-six compounds was determined in vitro by means of the MTT assay. Doxorubicin, a drug widely used to treat different types of cancer, was employed as a positive control, whereas the solvent (DMSO) was used as negative control.
(§2) Test compounds were dissolved in DMSO to obtain stock solutions that were maintained as small aliquots at −20 °C. At time of drug addition, an aliquot was thawed and diluted to obtain the desired final maximum test concentration of 100 μM, with complete medium. The final percentage of DMSO in the wells was less than 1% (v/v). […] Anti-Proliferative Assay
(§3) Doxorubicin, a drug widely used to treat different types of cancer, was used as a positive control. After 48 h, the medium was removed and cells were incubated with MTT solution (0.25 mg/mL). Four hours later, the medium was carefully aspired and formazan crystals were dissolved in DMSO (100 μL). The OD550 was measured using a plate reader (Multiskan Go, Thermo Scientific, Waltham, MA, USA). […] The selectivity index (SI), was calculated as a ratio of IC50Fibroblast/IC50HT-29cells.
(§4) The results are expressed as the mean of triplicate measurements in at least two independent experiments.

fibroblasts PCS-201-012 = assay: MTT cytotoxicity assay against normal dermal fibroblasts; format: cell-based; conditions: Fibroblast, value with 95% confidence interval, read-out: PCS-201-012 IC50 μM (95% CI)
Procedure: as §1, §2, §3, §4

[2] = Homo sapiens, HT-29, 48 h, MTT, 48 h, 0–100 µM, value with 95% confidence interval, read-out: HT-29 IC50 μM (95% CI)
[3] = Homo sapiens, HT-29, −logIC50 against HT-29, CoMFA training and test sets, read-out: pIC50 Experimental (converted)

melting point | IC50 [1, 2] | IC50 [1, 3] | IC50 ([1]; MTT, 48 h, 0–100 µM, value with 95% confidence interval, read-out: HT-29 IC50 μM (95% CI)) | Structure (SMILES) | IC50 (fibroblasts PCS-201-012) | Selectivity Index [1] | Cytotoxic activity category against HT-29 [1] | IC50 ([1]; Homo sapiens, HT-29, MTT, 48 h, 0–100 µM, value with 95% confidence interval, read-out: HT-29 IC50 μM (95% CI)) | IC50 ([1]; Homo sapiens, −logIC50 against HT-29, CoMFA training and test sets, read-out: pIC50 Experimental (converted))
107 °C | > 100 µM |  |  | CC/C=C/C1=C(O)C(=O)c2ccccc2C1=O [Compound 4b, 2-[(1E)-But-1-en-1-yl]-3-hydroxynaphthalene-1,4-dione] |  |  |  |  | 
136 °C | 13.7 µM | 13.7 µM |  | CCc1cc2c(o1)-c1ccccc1C(=O)C2=O [Compound 4h, 2-Ethylnaphtho[1,2-b]furan-4,5-dione] | 3.68 µM | 0.27 | highly active |  | 
302 to 304 °C | > 100 µM |  |  | Cc1cc2c([nH]1)C(=O)c1ccccc1C2=O [Compound 2b, 2-Methyl-1H-benzo[f]indole-4,9-dione] |  |  |  |  | 
 | 3.07 µM | 3.07 µM |  | CCc1noc(-c2cc3c(s2)C(=O)c2ccccc2C3=O)n1 [Compound 9, 2-(3-ethyl-1,2,4-oxadiazol-5-yl)naphtho[2,3-b]thiophene-4,9-dione] | 1.03 µM | 0.34 |  |  | 
150 °C | 88.1 µM |  |  | C=CC1(C)CC2=C(O1)c1ccccc1C(=O)C2=O (stereo not shown) [Compound 4t, 2-Ethenyl-2-methyl-2,3-dihydronaphtho[1,2-b]furan-4,5-dione] | 19.7 µM | 0.22 |  |  | 
147 °C | 28.1 µM |  |  | C=C(C)C1(C)CC2=C(O1)c1ccccc1C(=O)C2=O (stereo not shown) [Compound 4p, 2-Methyl-2-(prop-1-en-2-yl)-2,3-dihydronaphtho[1,2-b]furan-4,5-dione] | 4.19 µM | 0.15 |  |  | 
281 to 283 °C | > 100 µM |  |  | O=C1c2ccccc2C(=O)c2[nH]ccc21 [Compound 2a, 1H-Benzo[f]indole-4,9-dione] |  |  |  |  | 
 | 6.89 µM | 6.89 µM |  | CCN(CC)C(=O)c1cc2c(s1)C(=O)c1c(Cl)cccc1C2=O [Compound 8, 8-chloro-N,N-diethyl-4,9-dioxo-4,9-dihydronaphtho[2,3-b]thiophene-2-carboxamide] | 2.56 µM | 0.37 |  |  | 
220 °C | > 10 µM |  |  | O=C1c2ccccc2C(=O)c2oc(-c3ccccc3)cc21 [Compound 4k, 2-Phenylnaphtho[2,3-b]furan-4,9-dione] |  |  |  |  | 
 | 23.7 to 88.1 µM | 21.7 µM | 21.7 µM | CCCCc1cc2c(o1)C(=O)c1ccccc1C2=O [Compound 4f, 2-Butylnaphtho[2,3-b]furan-4,9-dione] | 10 µM | 0.46 |  |  | 
229.4 °C | 8.2 µM | 8.2 µM |  | O=C1c2ccccc2C(=O)c2occc21 [Compound 4j, Naphtho[2,3-b]furan-4,9-dione] | 8.28 µM | 1.01 | highly active |  | 
 | 2.67 µM | 2.67 µM |  | CCN(CC)C(=O)c1cc2c(o1)C(=O)c1ccccc1C2=O [Compound 6, N,N-diethyl-4,9-dioxo-4,9-dihydronaphtho[2,3-b]furan-2-carboxamide] | 1.49 µM | 0.56 | highly active |  | 
145 °C | 34.9 µM |  |  | COC1(C(C)=O)CC2=C(O1)C(=O)c1ccccc1C2=O (stereo not shown) [Compound 4l, 2-Acetyl-2-methoxy-2,3-dihydronaphtho[2,3-b]furan-4,9-dione] | 12.9 µM | 0.37 |  |  | 
85 °C | > 100 µM |  |  | CCCC/C=C/C1=C(O)C(=O)c2ccccc2C1=O [Compound 4c, 2-[(1E)-Hex-1-en-1-yl]-3-hydroxynaphthalene-1,4-dione] |  |  |  |  | 
124 °C | 8.36 µM | 8.36 µM |  | Cc1cc2c(o1)-c1ccccc1C(=O)C2=O [Compound 4g, 2-Methylnaphtho[1,2-b]furan-4,5-dione] | 1.93 µM | 0.23 | highly active |  | 
 | 4.61 µM |  |  | CC(=O)c1cc2c(o1)C(=O)c1ccccc1C2=O [Compound 4m, 2-Acetylnaphtho[2,3-b]furan-4,9-dione] | 3.5 µM | 0.76 | highly active |  | 
91 °C | 18.1 µM | 18.1 µM |  | CC1(C)OC2=C(C(=O)C(=O)c3ccccc32)C1(C)C [Compound 4s, 2,2,3,3-Tetramethyl-2,3-dihydronaphtho[1,2-b]furan-4,5-dione] | 19.9 µM | 1.10 |  |  | 

melting point | IC50 [1, 2] | IC50 [1, 3] | IC50 ([1]; MTT, 48 h, 0–100 µM, value with 95% confidence interval, read-out: HT-29 IC50 μM (95% CI)) | Structure (SMILES) | IC50 (fibroblasts PCS-201-012) | Selectivity Index [1] | Cytotoxic activity category against HT-29 [1] | IC50 ([1]; Homo sapiens, HT-29, MTT, 48 h, 0–100 µM, value with 95% confidence interval, read-out: HT-29 IC50 μM (95% CI)) | IC50 ([1]; Homo sapiens, −logIC50 against HT-29, CoMFA training and test sets, read-out: pIC50 Experimental (converted))
135 °C | 25.8 µM |  |  | C=C(C)C1(C)CC2=C(O1)C(=O)c1ccccc1C2=O (stereo not shown) [Compound 4o, 2-Methyl-2-(prop-1-en-2-yl)-2,3-dihydronaphtho[2,3-b]furan-4,9-dione] | 47.9 µM |  |  |  | 
 | 57.3 µM |  |  | CC12OC1C(=O)c1ccccc1C2=O (stereo not shown) [Compound 3b, 1a-Methyl-1a,7a-dihydronaphtho[2,3-b]oxirene-2,7-dione] |  |  |  |  | 
 | 1.73 µM | 1.73 µM |  | O=C(c1cccs1)c1cc2c(s1)C(=O)c1c(O)cccc1C2=O [Compound 7, 8-hydroxy-2-(thiophen-2-ylcarbonyl)naphtho[2,3-b]thiophene-4,9-dione] | 4.56 µM |  |  |  | 
 | > 100 µM |  |  | CC1=C(N)C(=O)c2ccccc2C1=O [Compound 3a, 2-Amino-3-methylnaphthalene-1,4-dione] |  |  |  |  | 
266 to 270 °C | > 100 µM |  |  | CCCc1[nH]c2c(c1C)C(=O)c1ccccc1C2=O [Compound 2f, 3-Methyl-2-propyl-1H-benzo[f]indole-4,9-dione] |  |  |  |  | 
 | 10.8 µM | 10.8 µM |  | O=C1c2ccccc2C(=O)C2OC12 (stereo not shown) [Compound 1a, 1a,7a-Dihydronaphtho[2,3-b]oxirene-2,7-dione] |  |  |  |  | 
158 °C | 11 µM | 11 µM |  | CC1=C(Cl)C(=O)c2ccccc2C1=O [Compound 3c, 2-Chloro-3-methylnaphthalene-1,4-dione] | 9.92 µM | 0.90 |  |  | 
 | 24.9 µM | 24.9 µM |  | CCc1cc2c(o1)C(=O)c1ccccc1C2=O [Compound 4e, 2-Ethylnaphtho[2,3-b]furan-4,9-dione] | 20.1 µM | 0.80 |  |  | 
 |  |  |  | NC1=CC(=O)c2ccccc2C1=O [Compound 2, 2-Aminonaphthalene-1,4-dione] | 7.34 µM | 0.30 |  | 24.6 µM | 24.6 µM
 | 17.6 µM | 17.6 µM |  | Cc1cc2c(o1)C(=O)c1ccccc1C2=O [Compound 4d, 2-Methylnaphtho[2,3-b]furan-4,9-dione] | 18.5 µM | 1.05 | highly active |  | 
205 to 209 °C | 68.7 µM | 68.7 µM |  | CCc1[nH]c2c(c1CC)C(=O)c1ccccc1C2=O [Compound 2d, 2,3-Diethyl-1H-benzo[f]indole-4,9-dione] | 51.5 µM | 0.75 |  |  | 
 | 1.07 µM |  |  | COc1cccc2c1C(=O)c1c(O)c3c(c(O)c1C2=O)C[C@@](O)(C(=O)CO)C[C@@H]3O[C@H]1C[C@H](N)[C@H](O)[C@H](C)O1 [Doxorubicin, reference compound] |  |  |  |  | 
 | 13.9 µM | 13.9 µM |  | COC(=O)c1nc2c(s1)C(=O)c1ccccc1C2=O [Compound 5c, Methyl 4,9-Dioxo-4,9-dihydronaphtho[2,3-d][1,3]thiazole-2-carboxylate] | 7.26 µM | 0.52 |  |  | 
 | 30.2 µM |  |  | O=C1C2=C(OC(c3ccccc3)C2)C(=O)c2ccccc21 (stereo not shown) [Compound 4q, 2-Phenyl-2,3-dihydronaphtho[2,3-b]furan-4,9-dione] | 9.16 µM | 0.30 |  |  | 
 | > 100 µM |  |  | C/C=C/C1=C(O)C(=O)c2ccccc2C1=O [Compound 4a, 2-Hydroxy-3-[(1E)-prop-1-en-1-yl]naphthalene-1,4-dione] |  |  |  |  | 
245 to 248 °C | > 100 µM |  |  | Cc1c(C(C)C)[nH]c2c1C(=O)c1ccccc1C2=O [Compound 2e, 3-Methyl-2-(propan-2-yl)-1H-benzo[f]indole-4,9-dione] |  |  |  |  | 
 | 14.8 µM |  |  | O=C1C(=O)c2ccccc2C2=C1CC(c1ccccc1)O2 (stereo not shown) [Compound 4r, 2-Phenyl-2,3-dihydronaphtho[1,2-b]furan-4,5-dione] | 8.2 µM | 0.56 |  |  | 

Structure (SMILES) | melting point | IC50 [1, 2] | IC50 [1, 3] | IC50 ([1]; MTT, 48 h, 0–100 µM, value with 95% confidence interval, read-out: HT-29 IC50 μM (95% CI)) | IC50 (fibroblasts PCS-201-012) | Selectivity Index [1] | Cytotoxic activity category against HT-29 [1] | IC50 ([1]; Homo sapiens, HT-29, MTT, 48 h, 0–100 µM, value with 95% confidence interval, read-out: HT-29 IC50 μM (95% CI)) | IC50 ([1]; Homo sapiens, −logIC50 against HT-29, CoMFA training and test sets, read-out: pIC50 Experimental (converted))
COC(=O)C1C2=C(OC1c1ccccc1)C(=O)c1ccccc1C2=O (stereo not shown) [Compound 4n, Methyl 4,9-Dioxo-2-phenyl-2,3,4,9-tetrahydronaphtho[2,3-b]furan-3-carboxylate] | 167 °C | > 100 µM |  |  |  |  |  |  | 
